# Values joined by “and” are separate entries in the source; they are usually repeats but may differ in a detail not shown here. Equal entries are not always repeated. Marks after values point to notes of the source that are not given here.
# How the values were obtained:
# [1] = cited from earlier work
# [2] = serum concentrations of phenobarbital and bromide
# [3] = system: dogs with newly diagnosed idiopathic epilepsy; experiment: monotherapy in dogs with newly diagnosed idiopathic epilepsy (AWD 131-138 pilot study; retrospective phenobarbital, primidone); conditions: for duration of the ictus before treatment, median / duration of the ictus before treatment, time range / duration of the ictus during treatment, median / duration of the ictus during treatment, time range: grand mal seizures; for duration of the ictus before treatment, median / duration of the ictus before treatment, time range / Seizure frequency before treatment, all dogs / Seizure frequency before treatment, without nonresponders: baseline before monotherapy; for % reduction of seizures in responders: mean ± SEM; for Seizure frequency before treatment, all dogs / Seizure frequency before treatment, without nonresponders / Seizure frequency during treatment, all dogs / Seizure frequency during treatment, without nonresponders: median group value; for Seizure frequency during treatment, all dogs / Seizure frequency during treatment, without nonresponders: asterisk = P<0.05 vs before; for shortening of the postictal phase, mean: in the dogs with shortening; for dogs with unchanged or increased seizure severity: owners record
# [4] = system: dogs with chronic idiopathic epilepsy; experiment: add-on therapy in dogs with chronic idiopathic epilepsy not responding to phenobarbital or primidone; assay type: in vivo, dog
# [5] = 44 newly diagnosed dogs, phenobarbital 4 to 13 mg/kg p.o. daily
# [6] = eight chronic epilepsy dogs (potassium bromide add-on group), phenobarbital 6 to 17 mg/kg p.o. daily
# [7] = eleven chronic epilepsy dogs (later AWD add-on), phenobarbital 6 to 23 mg/kg p.o. daily
# [8] = add-on to phenobarbital or primidone
# [9] = grand mal seizures, add-on to phenobarbital or primidone
# [10] = grand mal seizures, on phenobarbital or primidone before add-on
# [11] = median, on phenobarbital/primidone before add-on
# [12] = potassium bromide 40-60 mg/kg p.o. daily, add-on
smiles,measurement,setting,value
"CCC1(c2ccccc2)C(=O)NC(=O)NC1=O [Phenobarbital, phenobarbital]","phenobarbital serum concentration, reference values",[1]; established by FARNBACH 1984,45 µg/mL
same,"serum concentration of phenobarbital, mean",[2]; [5],18400 ng/mL
same,"serum concentration of phenobarbital, median",[2]; [5],17200 ng/mL
same,"serum concentration, mean",[2]; [6],27200 ng/mL
same,"serum concentration, median",[2]; [6],24600 ng/mL
same,"serum concentration of phenobarbital, mean",[2]; [7],32000 ng/mL
same,"serum concentration of phenobarbital, median",[2]; [7],26500 ng/mL
same,"duration of the ictus before treatment, median",[3],4.0 min
same,"duration of the ictus before treatment, time range",[3],0.5 to 10 min
same,"duration of the ictus during treatment, median",[3]; monotherapy,5.0 min
same,"duration of the ictus during treatment, time range",[3]; monotherapy,0.5 to 10 min
same,% reduction of seizures in responders,[3]; monotherapy,72.4 ± 4.6%
same,"Seizure frequency before treatment, all dogs",[3],1.6 seizures/month
same,"Seizure frequency before treatment, without nonresponders",[3],1.68 seizures/month
same,"Seizure frequency during treatment, all dogs",[3]; monotherapy,0.59* seizures/month
same,"Seizure frequency during treatment, without nonresponders",[3]; monotherapy,0.42* seizures/month
same,dogs that died or were euthanized in status epilepticus,[3]; monotherapy,10
same,dogs with focal seizures instead of grand mal seizures during treatment,[3]; monotherapy,6
same,number of dogs with decreased duration of the ictus,[3]; monotherapy,4
same,number of dogs with shortened postictal phase,[3]; monotherapy,8
same,owners reporting subjectively a decrease of seizure severity,[3]; monotherapy,24
same,"postictal phase during treatment, mean",[3]; monotherapy,3 h
same,"shortening of the postictal phase, mean",[3]; monotherapy,43%
same,dogs with unchanged or increased seizure severity,[3]; monotherapy,11
"CCC1(c2ccccc2)C(=O)NCNC1=O [Primidone, primidone]",comparison of antiepileptic efficacy between monotherapy treatment groups,[3]; ANOVA,did not indicate any significant differences
same,"duration of the ictus before treatment, median",[3],1.5 min
same,"duration of the ictus before treatment, time range",[3],0.5 to 10 min
same,"duration of the ictus during treatment, median",[3]; monotherapy,1.0 min
same,"duration of the ictus during treatment, time range",[3]; monotherapy,0.5 to 10 min
same,% reduction of seizures in responders,[3]; monotherapy,75.1 ± 5.1%
same,"Seizure frequency before treatment, all dogs",[3],1.75 seizures/month
same,"Seizure frequency before treatment, without nonresponders",[3],2.0 seizures/month
same,"Seizure frequency during treatment, all dogs",[3]; monotherapy,0.39 seizures/month
same,"Seizure frequency during treatment, without nonresponders",[3]; monotherapy,0.29* seizures/month
same,dogs in which a seizure reduction was observed,[3]; monotherapy,19 of 26
same,dogs that died or were euthanized in status epilepticus,[3]; monotherapy,10
same,dogs with focal seizures instead of grand mal seizures during treatment,[3]; monotherapy,2
same,dogs with reduced seizure number per cluster,[3]; monotherapy,5 out of ten
same,number of dogs with decreased duration of the ictus,[3]; monotherapy,2
same,number of dogs with shortened postictal phase,[3]; monotherapy,5
same,owners reporting subjectively a decrease of seizure severity,[3]; monotherapy,ten of 22
same,"postictal phase during treatment, mean",[3]; monotherapy,4.5 h
same,"reduction of seizure number per cluster, mean",[3]; monotherapy,37.5%
same,decrease of the duration of the ictus,"[3]; monotherapy, in the dogs with a decrease",30%
same,"shortening of the postictal phase, mean",[3]; monotherapy,40%
same,dogs with unchanged or increased seizure severity,[3]; monotherapy,2
"[Br-].[K+] [Potassium bromide, potassium bromide, reference compound]","bromide concentration, therapeutic range",[1]; established by PODELL and FENNER 1993,1.0 to 2.0 mg/mL
same,comparison of antiepileptic efficacy between the two add on treatment schedules,[4]; Fisher's exact test,did not indicate any significant difference
same,dogs in which clusters did not occur anymore,[4]; add-on,6
same,dogs with worsening of seizure severity reported by owner,[4]; add-on,one
same,number of dogs with decreased duration of the ictus,[4]; add-on,3
same,number of dogs with shortened postictal phase,[4]; add-on,two
same,"postictal phase during treatment, mean",[4]; add-on,5.5 h
same,dogs in which a seizure reduction was observed,[4]; [8],7 of 12
same,dogs that died or were euthanized in status epilepticus,[4]; [8],6
same,Number of seizure-free dogs,[4]; add-on to phenobarbital/primidone,0/12
same,shortening of the postictal phase,"[4]; add-on, in the dogs with shortening",50% and 75%
same,"duration of the ictus during treatment, median",[4]; [9],2.0 min
same,"duration of the ictus during treatment, time range",[4]; [9],1 to 10 min
same,"duration of the ictus before treatment, median",[4]; [10],3.0 min
same,"duration of the ictus before treatment, time range",[4]; [10],1 to 13 min
same,% reduction of seizures in responders,"[4]; mean ± SEM, add-on to phenobarbital/primidone",59.7 ± 5.9%
same,"Seizure frequency during treatment, all dogs","[4]; median, add-on to phenobarbital/primidone",1.9 seizures/month
same,"Seizure frequency during treatment, without nonresponders","[4]; median, add-on to phenobarbital/primidone, asterisk = P<0.05",0.8* seizures/month
same,"Seizure frequency before treatment, all dogs",[4]; [11],3.0 seizures/month
same,"Seizure frequency before treatment, without nonresponders",[4]; [11],3.0 seizures/month
same,"Bromide concentration, mean",[2]; [12],1.0 mg/mL
same,"Bromide concentration, median",[2]; [12],0.9 mg/mL

# Source: patent US9469611B2, “Use of dihydroimidazolones for the treatment of dogs” (BOEHRINGER INGELHEIM VETMEDICA GMBH, priority 2002, dated 2016)
